According to patent US6576662B2, “Compounds having anticancer activity : process for their preparation and pharmaceutical compositions containing them” (Dr. Reddy's Laboratories Limited, priority 2000, dated 2003):
Read-outs that look alike come from different tables or passages of the source. One block for each compound: values may come before it.

How the values were obtained:
Human lymphocytes = assay: Lymphocyte proliferation, tritiated thymidine incorporation; type: cell-based; details: Concentration 1 μM; human lymphocytes with Phytohemagglutitin A
Protocol: Human lymphocytes were isolated from whole blood by using Ficoll Hypaque Plus (Amersham). On day one, 1 million lymphocytes were seeded into each well of 96 well plate in 100 μL volume of RPMI 1640 medium containing 10% FCS and Phytohemagglutitin A at 1 μg/well concentration. Plates were incubated at 37° C. in CO2 incubator for 24 h. Test compounds at various concentrations were added to test wells and only medium with vehicle was added to control wells. After 48 h of incubation […] of tritiated thymidine was added to each well. After 24 h of thymidine addition the cells were harvested and the incorporated radioactivity was determined. Stimulation Index (SI) was calculated using the formula, [formula]
A^T=Average CPM of treated wells,
A^C=Average CPM of control wells.

MCF-7/ADR = assay: in vitro anti-cancer screen, Sulforhodamine B method; type: cell-based, human; details: BREAST: MCF-7/ADR, 48 h incubation, read-out: GROWTH INHIBITION (GI 50)
Protocol: (§1) Each test compound was screened against a battery of cell lines representing eight different types of cancers. In a typical procedure, 1×10^4 cells were seeded into each well of 96 well plate in 100 μL volume of RPMI 1640 medium containing antibiotics and 10% FCS.
(§2) The plates were incubated at 37° C. in presence of CO2. After 24 h, test compounds were evaluated at five 10 fold dilutions ranging from 100 to 0.01 μM. To each test well 100 μL of test compound solution was added and medium with vehicle was added to control wells and the plates were further incubated. After 48 h of incubation, plates were terminated by Sulforhodamine B method.
(§3) The optical density which is proportional to protein mass, is then-read by automated spectrophotometric plate reader at a wavelength of 515 nm.

PA1 = assay: as above; type: cell-based, human; details: OVARIAN: PA1, 48 h incubation, read-out: GROWTH INHIBITION (GI 50)
Protocol: as §1, §2, §3

SW-620 = assay: as above; type: cell-based, human; details: COLON: SW-620, 48 h incubation, read-out: GROWTH INHIBITION (GI 50)
Protocol: as §1, §2, §3

MCF7 = assay: as above; type: cell-based, human; details: BREAST: MCF7, 48 h incubation, read-out: GROWTH INHIBITION (GI 50)
Protocol: as §1, §2, §3

H522 = assay: as above; type: cell-based, human; details: LUNG: H522, 48 h incubation, read-out: GROWTH INHIBITION (GI 50)
Protocol: as §1, §2, §3

SKOV-3 = assay: as above; type: cell-based, human; details: OVARIAN: SKOV-3, 48 h incubation, read-out: GROWTH INHIBITION (GI 50)
Protocol: as §1, §2, §3

A498 = assay: as above; type: cell-based, human; details: RENAL: A498, 48 h incubation, read-out: GROWTH INHIBITION (GI 50)
Protocol: as §1, §2, §3

HT29 = assay: as above; type: cell-based, human; details: COLON: HT29, 48 h incubation, read-out: GROWTH INHIBITION (GI 50)
Protocol: as §1, §2, §3

U251 = assay: as above; type: cell-based, human; details: CNS: U251, 48 h incubation, read-out: GROWTH INHIBITION (GI 50)
Protocol: as §1, §2, §3

UACC62 = assay: as above; type: cell-based, human; details: MELANOMA: UACC62, 48 h incubation, read-out: GROWTH INHIBITION (GI 50)
Protocol: as §1, §2, §3

Compound: C=C1CCC2C(C)(COC(C)=O)C(OC(C)=O)CCC2(C)C1CC(NC(Cc1ccccc1)C(=O)OC)C1=CCOC1=O (centres unmarked) [Example 6, 3,19-Diacetyl-14-deoxy-12-(O-methylphenylalano)andrographolide]
- Stimulation Index (SI) (Human lymphocytes): 92

Compound: C[C@]1(CO)C2CC[C@]3(CO3)[C@H](CC(Sc3ccccc3)C3=CCOC3=O)[C@@]2(C)CC[C@H]1O (some centres unmarked) [Example 54, 14-Deoxy-8,17-epoxy-12-phenylthio andrographolide]
- melting point: 90 °C

Compound: C=C1CCC2[C@](C)(CO)C(O)CC[C@]2(C)[C@H]1CC(Nc1ccc(OC)c(OC)c1)C1=CCOC1=O (some centres unmarked) [Example 37, 14-Deoxy-12-(3,4-dimethoxyanilino)andrographolide]
- melting point: 225 to 230 °C

Compound: C=C1CCC2[C@](C)(CO)[C@H](O)CC[C@]2(C)[C@H]1CC(C1=CCOC1=O)n1cc(Br)c(=O)[nH]c1=O (some centres unmarked) [Example 52, 14-Deoxy-12-[N^1-(5-bromouracil)]andrographolide]
- melting point: 185 °C

Compound: C=C1CCC2[C@](C)(CO)[C@H](O)CC[C@]2(C)[C@H]1CC(Nc1cccc(C)c1C)C1=CCOC1=O (some centres unmarked) [Example 28, 1-(2,3-Dimethylanilino)-14-deoxy andrographolide]
- Stimulation Index (SI) (Human lymphocytes): 40

Compound: CCC(=O)OC[C@@]1(C)C2CC[C@]3(CO3)[C@H](CC(OC(=O)CNC(=O)OC(C)(C)C)C3=CCOC3=O)[C@@]2(C)CC[C@H]1OC(=O)CC (some centres unmarked) [Example 77, 12-(N-Bocglycinyloxy)-14-deoxy-8,17-epoxy-3,19-dipropionyl andrographolide]
- melting point: 80 °C

Compound: C=C1CCC2[C@](C)(CO)C(O)CC[C@]2(C)[C@H]1CC(NC(C(=O)OC)c1ccccc1)C1=CCOC1=O (some centres unmarked) [Example 19, 14-Deoxy-12-(O-methylphenylglycino)andrographolide]
- melting point: 68 °C

Compound: 3,19-Diacetyl-14-deoxy-12-[N^1-(5-iodouracil)]andrographolide [Example 48]
- Stimulation Index (SI) (Human lymphocytes): 130
- GI50 (MCF-7/ADR): 2 µM
- GI50 (PA1): 2 µM
- GI50 (SW-620): 4 µM
- GI50 (MCF7): 2 µM
- GI50 (H522): 4 µM
- GI50 (SKOV-3): 3 µM
- GI50 (A498): 3 µM
- GI50 (HT29): 4 µM
- GI50 (U251): 2 µM
- GI50 (UACC62): 3 µM

Compound: C=C1CCC2[C@](C)(COC(C)=O)C(OC(C)=O)CC[C@]2(C)[C@H]1CC(OC(C)=O)C1=CCOC1=O (some centres unmarked) [Example 74, 12-Acetoxy-3,19-diacetyl-14-deoxy andrographolide]
- melting point: 152.7 °C

Compound: C=C1CCC2[C@]3(C)COC(c4ccccc4)OC3CC[C@]2(C)[C@H]1CC(NCc1ccccc1)C1=CCOC1=O (some centres unmarked) [Example 24, 3,19-O-Benzylidene-12-(N-benzylamino)-14-deoxy andrographolide]
- melting point: 172 to 173 °C

Compound: C=C1CCC2[C@](C)(CO)[C@H](O)CC[C@]2(C)[C@H]1CC(C1=CCOC1=O)n1ccc(=O)[nH]c1=O (some centres unmarked) [Example 50, 14-Deoxy-12-(N^1-uracil)andrographolide]
- melting point: 164 °C

Compound: C=C1CCC2C(C)(COC(C)=O)C(OC(C)=O)CCC2(C)C1CC(NC(CC[Se]C)C(=O)OC)C1=CCOC1=O (centres unmarked) [Example 12, 3,19-Diacetyl-14-deoxy-12-(O-methylselenomethionino)andrographolide]
- Stimulation Index (SI) (Human lymphocytes): 40

Compound: C=C1CCC2[C@](C)(CO)[C@H](O)CC[C@]2(C)[C@H]1CC(Nc1cc[nH]c(=O)n1)C1=CCOC1=O (some centres unmarked) [Example 49, 14-Deoxy-12-[N-(1,2-dihydro-2-pyrimidinone)amino]andrographolide]
- melting point: 163 °C

Compound: C=C1CCC2[C@](C)(CO)[C@H](O)CC[C@]2(C)[C@H]1CC([Se]c1ccccc1)C1=CCOC1=O (some centres unmarked)
- melting point: 186 °C

Compound: C=C1CCC2[C@](C)(CO)[C@H](O)CC[C@]2(C)[C@H]1CC(C1=CCOC1=O)n1cc(I)c(=O)[nH]c1=O (some centres unmarked) [Example 53, 14-Deoxy-12-[N^1-(5-iodouracil)]andrographolide]
- melting point: 187 to 188 °C

More lines, main results first:

- melting point: 154.1 °C
Compound: C=C1CCC2[C@]3(C)COC(C)(c4ccccc4)OC3CC[C@]2(C)[C@H]1CC(Sc1ccccc1)C1=CCOC1=O (some centres unmarked) [Example 67, 14-Deoxy-3,19-O-(1-phenylethylidene)-12-phenylthio andrographolide]

- melting point: 57 °C
Compound: C=C1CCC2[C@]3(C)COC(C)(C)OC3CC[C@]2(C)[C@H]1CC(NC(Cc1ccccc1)C(=O)OC)C1=CCOC1=O (some centres unmarked) [Example 20, 14-Deoxy-3,19-O-isopropylidene-12-(methylphenylalanino)andrographolide]

- melting point: 118 °C
Compound: C=C1CCC2[C@]3(C)COC(c4ccccc4)OC3CC[C@]2(C)[C@H]1CC(Nc1cccc(C)c1C)C1=CCOC1=O (some centres unmarked) [Example 40, 3,19-O-Benzylidene-14-deoxy-12-(2,3-dimethylanilino)andrographolide]

- melting point: 91 °C
Compound: C=C1CCC2[C@]3(C)COC(C)(c4ccccc4)OC3CC[C@]2(C)[C@H]1CC(NC(C(=O)OC)c1ccccc1)C1=CCOC1=O (some centres unmarked) [Example 2, 14-Deoxy-12-(O-methylphenylglycino)-3,19-O-(1-phenylethylidene) androgrpaholide]

- melting point: 160 °C
Compound: C=C1CCC2[C@](C)(CO)[C@H](O)CC[C@]2(C)[C@H]1CC(SCC)C1=CCOC1=O (some centres unmarked) [Example 64, 14-Deoxy-12-ethylthio andrographolide]

- melting point: 192.5 °C
Compound: C=C1CCC2[C@]3(C)COC(C)(C)OC3CC[C@]2(C)[C@H]1CC(Nc1cccc(C)c1C)C1=CCOC1=O (some centres unmarked) [Example 38, 14-Deoxy-3,19-O-isopropylidene-12-(2,3-dimethylanilino)andrographolide]

- melting point: 74 to 76 °C
Compound: C=C1CCC2[C@]3(C)COC(c4ccccc4)OC3CC[C@]2(C)[C@H]1CC(Sc1ccccc1)C1=CCOC1=O (some centres unmarked) [Example 69, 3,19-O-Benzylidene-14-deoxy-12-phenylthio andrographolide]

- melting point: 122.5 to 125 °C
Compound: C=C1CCC2[C@]3(C)COC(C)(c4ccccc4)OC3CC[C@]2(C)[C@H]1CC(SCC)C1=CCOC1=O (some centres unmarked) [Example 68, 14-Deoxy-3,19-O-(1-phenylethylidene)-12-ethylthio andrographolide]

- melting point: 149.6 °C
- GI50 (MCF-7/ADR; Homo sapiens, NCI/ADR-RES): 1 µM
- GI50 (PA1; Homo sapiens, PA-1): 2 µM
- GI50 (SW-620; Homo sapiens): 2 µM
- GI50 (MCF7; Homo sapiens): 3 µM
- GI50 (H522; Homo sapiens, NCI-H522): 3 µM
- GI50 (SKOV-3; Homo sapiens, SK-OV-3): 2 µM
- GI50 (A498; Homo sapiens): 2 µM
- GI50 (HT29; Homo sapiens, HT-29): 3 µM
- GI50 (U251; Homo sapiens, U-251): 2 µM
- GI50 (UACC62; Homo sapiens, UACC-62): 2 µM
Compound: C=C1CCC2[C@]3(C)COC(C)(c4ccccc4)OC3CC[C@]2(C)[C@H]1CC(NCc1ccccc1)C1=CCOC1=O (some centres unmarked) [Example 21, 12-(N-Benzylamino)-14-deoxy-3,19-O-(1-phenylethylidene)andrographolide]
- Stimulation Index (SI) (Human lymphocytes): 16

- melting point: 105 °C
Compound: C=C1CCC2[C@](C)(CO)[C@H](O)CC[C@]2(C)[C@H]1CC(Sc1ccccc1)C1=CCOC1=O (some centres unmarked) [Example 63, 14-Deoxy-12-phenylthio andrographolide]
- Stimulation Index (SI) (Human lymphocytes): 59
